Each structure is given as a SMILES string.

This assay addresses T1, human GPR119 (Homo sapiens, UniProt Q8TDV5).
T1 construct: expression vector for human GPR119 cDNA (Acc. No. NP_848566); expressed in transfected cells; Min-6/hGPR119
T1 sequence (Q8TDV5 1-335): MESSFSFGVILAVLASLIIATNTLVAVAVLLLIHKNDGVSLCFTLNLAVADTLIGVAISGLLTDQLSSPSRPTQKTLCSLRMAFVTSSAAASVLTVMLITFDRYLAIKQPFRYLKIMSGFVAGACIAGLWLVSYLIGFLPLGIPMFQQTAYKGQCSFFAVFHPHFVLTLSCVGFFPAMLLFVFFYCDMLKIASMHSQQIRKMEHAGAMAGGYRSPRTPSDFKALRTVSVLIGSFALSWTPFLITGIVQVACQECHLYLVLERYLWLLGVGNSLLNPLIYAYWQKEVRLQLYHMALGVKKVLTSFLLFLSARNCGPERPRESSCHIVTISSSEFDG
Put plainly: AlphaScreen cAMP assay in MIN6 cells stably transfected with human GPR119. Type of assay: cell-based. The note with it: Min-6/hGPR119 cells, 45 min at room temperature. As for the experimental part: The compounds of formula I according to the invention modulate the activity of the G-protein-coupled receptor GPR119. The effect of the compounds on the activation of GPR119 and on the stimulation of intracellular cAMP concentration is determined using the AlphaScreen cAMP Assay Kit (Cat. No. #6760625R) made by PerkinElmer.
MIN6 cells [Miyazaki J et al. Endocrinology. 1990 July; 127(1):126-32] are stably transfected with an expression vector for human GPR119 cDNA (Acc. No. NP_848566). Min-6/hGPR119 cells are cultured in DMEM, 10% FBS, 50 μM β-mercaptoethanol, 0.3 mg/mL Geniticin, 2 mM GlutaMAX at 37° C. 5% CO2. For the assay, the cells are seeded in Optiplates (white, 384-well, 160 W—barcoded, TC, sterile with lid, Cat. No. #6007688 (Perkin Elmer); 10000 cells/well; 50 μl). The plates covered with lids are then incubated for 24 hours at 37° C./5% CO2. After the medium is aspirated from the wells completely, 10 μl of the test compound are added, the compounds are diluted using stimulating buffer (140 mM NaCl, 3.6 mM KCl, 0.5 mM NaH2PO4, 0.5 mM MgSO4, 1.5 mM CaCl2, 10 mM Hepes, 5 mM NaHCO3; pH 7.4. 0.5 mM IBMX and 0.1% BSA, the final DMSO concentration is 1%). After 45 minutes incubation at room temperature (approx. 20° C.), the cAMP concentrations are determined using the AlphaScreen cAMP Assay Kit (Cat. No. #6760625R from PerkinElmer).
(In general: In Alpha technology, singlet oxygen from a donor bead excites a nearby acceptor bead.)
A word on the EC50: it is the concentration giving half of the maximal effect. The compound `CCc1nccn1-c1ncc(C(=O)N(C2CC2)C2CCN(C(=O)OC(C)C)CC2)cn1` [Example 52, 4-{Cyclopropyl-[2-(2-ethyl-imidazol-1-yl)-pyrimidine-5-carbonyl]-amino}-piperidine-1-carboxylic acid isopropyl ester] registered an EC50 of 0.211 µM.

Take `CC(C)OC(=O)N1CCC(N(C(=O)c2cnc(-c3ccc(S(C)(=O)=O)cc3)nc2)C2CC2)CC1` [Example 53, 4-{Cyclopropyl-[2-(4-methanesulfonyl-phenyl)-pyrimidine-5-carbonyl]-amino}-piperidine-1-carboxylic acid isopropyl ester]: the midpoint of the response, the EC50, lay at 0.12 µM.

`Cc1nccn1-c1ncc(C(=O)N(C2CC2)C2CCN(C(=O)OC(C)C)CC2)cn1` [Example 54, 4-{Cyclopropyl-[2-(2-methyl-imidazol-1-yl)-pyrimidine-5-carbonyl]-amino}-piperidine-1-carboxylic acid isopropyl ester]: the EC50 was 0.129 µM.

Regarding `Cc1nccn1-c1ncc(C(=O)N(C2CC2)C2CCN(C(=O)OC3(C)CC3)CC2)cn1` [Example 55, 4-{Cyclopropyl-[2-(2-methyl-imidazol-1-yl)-pyrimidine-5-carbonyl]-amino}-piperidine-1-carboxylic acid 1-methyl-cyclopropyl ester], the EC50 was 0.106 µM.

`CC(C)(C)OC(=O)N1CCC(N(C(=O)c2cnc(-n3cccn3)nc2)C2CC2)CC1` [Example 56, 4-[Cyclopropyl-(2-pyrazol-1-yl-pyrimidine-5-carbonyl)-amino]-piperidine-1-carboxylic acid tert-butyl ester]: a half-maximal effect (EC50) was put at 2.78 µM.

The compound `Cc1cc(C)n(-c2ncc(C(=O)N(C3CC3)C3CCN(C(=O)OC(C)(C)C)CC3)cn2)n1` [Example 57, 4-{Cyclopropyl-[2-(3,5-dimethyl-pyrazol-1-yl)-pyrimidine-5-carbonyl]-amino}-piperidine-1-carboxylic acid tert-butyl ester] had an EC50 of 3.75 µM.

In turn, `CC(C)(C)OC(=O)N1CCC(N(C(=O)c2cnc(-n3cc(CCO)cn3)nc2)C2CC2)CC1` [Example 58, 4-(Cyclopropyl-{2-[4-(2-hydroxy-ethyl)-pyrazol-1-yl]-pyrimidine-5-carbonyl}-amino)-piperidine-1-carboxylic acid tert-butyl ester] yielded an EC50 of 2.21 µM.

Take `CCOc1ccc(-c2ncc(C(=O)N(C3CC3)C3CCN(C(=O)OC(C)C)CC3)cn2)cn1` [Example 59, 4-{Cyclopropyl-[2-(6-ethoxy-pyridin-3-yl)-pyrimidine-5-carbonyl]-amino}-piperidine-1-carboxylic acid isopropyl ester]: the midpoint of the response, the EC50, lay at 0.167 µM.

The compound `CC(C)OC(=O)N1CCC(N(C(=O)c2cnc(-c3ccc(CC#N)cc3)nc2)C2CC2)CC1` [Example 60, 4-{[2-(4-Cyanomethyl-phenyl)-pyrimidine-5-carbonyl]-cyclopropyl-amino}-piperidine-1-carboxylic acid isopropyl ester] returned an EC50 of 0.076 µM.

With `CC(C)OC(=O)N1CCC(N(C(=O)c2cnc(-c3ccc(C#N)c(F)c3)nc2)C2CC2)CC1` [Example 61, 4-{[2-(4-Cyano-3-fluoro-phenyl)-pyrimidine-5-carbonyl]-cyclopropyl-amino}-piperidine-1-carboxylic acid isopropyl ester], the response was half-maximal at 0.013 µM (EC50).

The compound `CC(C)(C)OC(=O)N1CCC(N(C(=O)c2ccc(-c3cccc([N+](=O)[O-])c3)o2)C2CC2)CC1` [Example 62, 4-{Cyclopropyl-[5-(3-nitro-phenyl)-furan-2-carbonyl]-amino}-piperidine-1-carboxylic acid tert-butyl ester] yielded an EC50 of 0.786 µM.

The compound `CC(C)(C)OC(=O)N1CCC(N(C(=O)c2cnc(-c3ccncc3)nc2)C2CC2)CC1` [Example 63, 4-[Cyclopropyl-(2-pyridin-4-yl-pyrimidine-5-carbonyl)-amino]-piperidine-1-carboxylic acid tert-butyl ester] returned an EC50 of 0.042 µM.

For `CC(C)(C)OC(=O)N1CCC(N(C(=O)c2cc(-c3cccc([N+](=O)[O-])c3)[nH]n2)C2CC2)CC1` [Example 64, 4-{Cyclopropyl-[5-(3-nitro-phenyl)-1H-pyrazole-3-carbonyl]-amino}-piperidine-1-carboxylic acid tert-butyl ester], the EC50 came to 0.934 µM.

As to `CC(C)(C)OC(=O)N1CCC(N(C(=O)c2cc(-c3ccc([N+](=O)[O-])cc3)[nH]n2)C2CC2)CC1` [Example 65, 4-{Cyclopropyl-[5-(4-nitro-phenyl)-1H-pyrazole-3-carbonyl]-amino}-piperidine-1-carboxylic acid tert-butyl ester], the midpoint of the response, the EC50, lay at 1.17 µM.

The compound `CC(C)(C)OC(=O)N1CCC(N(C(=O)c2ncc(-c3ccc(C#N)c(F)c3)cn2)C2CC2)CC1` [Example 66, 4-{[5-(4-Cyano-3-fluoro-phenyl)-pyrimidine-2-carbonyl]-cyclopropyl-amino}-piperidine-1-carboxylic acid tert-butyl ester] registered an EC50 of 0.636 µM.

As to `CC(C)(C)OC(=O)N1CCC(N(C(=O)c2ncc(-c3ccc(CC#N)cc3)cn2)C2CC2)CC1` [Example 67], a half-maximal response (EC50) required 0.219 µM.

`CC(C)(C)OC(=O)N1CCC(N(C(=O)c2ncc(-c3ccc(S(C)(=O)=O)cc3)cn2)C2CC2)CC1` [Example 68, 4-{Cyclopropyl-[5-(4-methanesulfonyl-phenyl)-pyrimidine-2-carbonyl]-amino}-piperidine-1-carboxylic acid tert-butyl ester] returned an EC50 of 0.544 µM.

With `CC(C)(C)OC(=O)N1CCC(N(C(=O)c2ncc(-c3ccc(C#N)nc3)cn2)C2CC2)CC1` [Example 69, 4-{[5-(6-Cyano-pyridin-3-yl)-pyrimidine-2-carbonyl]-cyclopropyl-amino}-piperidine-1-carboxylic acid tert-butyl ester], the EC50 was 1.12 µM.

For the compound `CC(C)(C)OC(=O)N1CCC(N(C(=O)c2cnc(-c3cccnc3)nc2)C2CC2)CC1` [Example 70, 4-[Cyclopropyl-(2-pyridin-3-yl-pyrimidine-5-carbonyl)-amino]-piperidine-1-carboxylic acid tert-butyl ester], the midpoint of the response, the EC50, lay at 0.489 µM.

For `CC(C)(C)OC(=O)N1CCC(N(C(=O)c2cnc(-c3cncnc3)nc2)C2CC2)CC1` [Example 71, 4-[([2,5′]Bipyrimidinyl-5-carbonyl)-cyclopropyl-amino]-piperidine-1-carboxylic acid tert-butyl ester], a half-maximal effect (EC50) was put at 0.09 µM.

On to `CC(C)(C)OC(=O)N1CCC(N(C(=O)c2cnc(-c3ccc(C#N)cc3)nc2)C2CC2)CC1` [Example 72, 4-{[2-(4-Cyano-phenyl)-pyrimidine-5-carbonyl]-cyclopropyl-amino}-piperidine-1-carboxylic acid tert-butyl ester], for which the EC50 was 0.014 µM.

Take `COc1ccccc1-c1ncc(C(=O)N(C2CC2)C2CCN(C(=O)OC(C)(C)C)CC2)cn1` [Example 73, 4-{Cyclopropyl-[2-(2-methoxy-phenyl)-pyrimidine-5-carbonyl]-amino}-piperidine-1-carboxylic acid tert-butyl ester]: it took 1.67 µM to reach a half-maximal effect (EC50).

`COc1cccc(-c2ncc(C(=O)N(C3CC3)C3CCN(C(=O)OC(C)(C)C)CC3)cn2)c1` [Example 74, 4-{Cyclopropyl-[2-(3-methoxy-phenyl)-pyrimidine-5-carbonyl]-amino}-piperidine-1-carboxylic acid tert-butyl ester] gave an EC50 of 1.01 µM.

On to `CC(C)(C)OC(=O)N1CCC(N(C(=O)c2cnc(-c3cccc(C#N)c3)nc2)C2CC2)CC1` [Example 75, 4-{[2-(3-Cyano-phenyl)-pyrimidine-5-carbonyl]-cyclopropyl-amino}-piperidine-1-carboxylic acid tert-butyl ester], for which the EC50 was 0.17 µM.

Regarding `CCOc1ccc(-c2ncc(C(=O)N(C3CC3)C3CCN(C(=O)OC(C)(C)C)CC3)cn2)cc1` [Example 76, 4-{Cyclopropyl-[2-(4-ethoxy-phenyl)-pyrimidine-5-carbonyl]-amino}-piperidine-1-carboxylic acid tert-butyl ester], the response was half-maximal at 0.071 µM (EC50).

Compound `CC(C)(C)OC(=O)N1CCC(N(C(=O)c2cnc(-c3ccc(OC(F)(F)F)cc3)nc2)C2CC2)CC1` [Example 77, 4-{Cyclopropyl-[2-(4-trifluoromethoxy-phenyl)-pyrimidine-5-carbonyl]-amino}-piperidine-1-carboxylic acid tert-butyl ester] showed an EC50 of 0.055 µM.

Source of the values: patent publication US20140045823A1 (Neurocrine Biosciences, Inc., priority 2012, published 2014).
